Experimental data published in patent US20260345556A1, “Pharmaceutical Composition for Preventing or Treating Nephritis” (Daewoong Pharmaceutical Co., Ltd., priority 2022, published 2026).

Legend:
[1] = system: gdT cells; experiment: Inhibition of IL-17 factor in gdT cells (IL-17A ELISA); format: cell-based; conditions: gdT cells from normal human blood; 10 μM; IL-2 and IL-15 10 ng/ml each; FIG. 3
Protocol: After collecting 10 ml of normal human blood, ficoll density gradient medium (Cytiva, 17144003) and PBS, the immune cell layer (PBMC) was isolated using a centrifuge. PBMCs were transferred to a new tube using a pipette. After RBC lysis buffer was added to PBMC, centrifugation was performed, and then 10 ng/ml of human IL-2 and IL-15 protein (cytokine) were respectively added to the cells, and cultured (for the purpose of inducing IL-17A). The compounds of Examples were dissolved in DMSO to make a 5 mM stock, and then 10 μM of the example compound was treated. On the 3rd and 5th days of cytokine treatment, 10 ng/ml of human IL-2 and IL-15 proteins (cytokine) were added, centrifuged, and the supernatant was collected. The IL-17A expression level was confirmed with the collected supernatant using an IL-17A ELISA kit (DY371, R&D Systems), and the results are shown in FIG. 3.

[2] = system: Rat kidney cell line (NRK-49F cell line); experiment: Fibrotic factor inhibition in rat kidney cell line (western blot); format: cell-based; conditions: 5 ng/ml TGFb, 2.5, 5, 10 μM, 48 hours, FIG. 6
[3] = system: C57BL/6 male mice; experiment: NTN (Nephrotoxic Serum-Induced Nephritis) model; format: in vivo, mouse; conditions: oral 5, 10, 20 mg/kg for 7 days from disease induction
Protocol: After sensitizing C57BL/6 male mice with 200 μg sheep IgG and Freund's […] adjuvant, 10 μg of sheep nephrotoxic serum was injected after five days to induce disease. From the day the disease was induced, the compounds of Examples were orally administered at doses of 5 mg/kg, 10 mg/kg, and 20 mg/kg for 7 days, respectively. Saline was administered to the negative control group (vehicle). On day 8, renal function (uPCR, BUN) was assessed.
The NTN model is a glomerulonephritis model that causes inflammation in the glomeruli, which induces proteinuria.

[4] = system: human primary kidney cells; experiment: Fibrotic factor inhibition in human primary kidney cells (western blot); format: cell-based; conditions: 5 ng/ml TGFb, 1.25 µM, 2.5 μM, 5 μM, 48 hours, FIG. 7
Protocol: Digestion buffer was added to human kidney tissue (preserved after biopsy), cut into small pieces with scissors, and then disintegrated through a shaker incubation for 90 minutes. After filtering the disintegrated tissue through a 70 μm filter cell strainer, the remaining tissue was filtered once again using a 40 μm filter cell strainer. The filtered disintegrated tissue solution was centrifuged, and the cells were isolated and cultured. The cultured cells were treated with 5 ng/ml TGFb and […], 2.5 μM, and 5 μM of the compounds of Examples, respectively, and then 48 hours later, cells were harvested, and western blot was performed to quantitatively analyze fibrotic factor proteins.

[5] = system: CD4+ T cells; experiment: CD4+ T cell proliferation inhibition (CFSE staining, flow cytometry); format: cell-based; conditions: human blood CD4+ T cells; 1.25, 2.5, 5, 10 μM; 5 days; FIG. 2
Protocol: (§1) PBMCs were transferred to a new tube using a pipette. After RBC lysis buffer was added to PBMC, centrifugation was performed, and then CD8 or CD4 cells were isolated using CD8 MicroBeads (Miltenyl Biotec, 130-045-201) or CD4 MicroBeads (Miltenyl Biotec, 130-096-533). A CFSE (-(and-6)-Carboxyfluorescein Diacetate, Succinimidyl Ester) labeling solution (Invitrogen, C1157) was added to the isolated cells. The compounds of Examples were dissolved in DMSO to make a 5 mM stock, then treated to make 1.25 μM, 2.5 μM, 5 μM, and 10 μM, respectively. After 5 days, the degree of cell proliferation was measured by the amount of CFSE staining using flow cytometry, and the results are shown in FIG. 2.

[6] = system: C57BL/6 male mice; experiment: Mouse renal failure prevention model by Adenine diet; format: in vivo; conditions: oral once a day 5, 10, 20 mg/kg for 4 weeks, simultaneously with adenine
Protocol: A feed containing adenine was administered to C57BL/6 male mice as described in Ali et al. J Pharmacol Toxicol Methods 2013; Jia et al. BMC Nephrol 2013; Tanaka et al. Am J Pathol 2009. Simultaneously with the start of adenine administration, 5 mg/kg, 10 mg/kg, and 20 mg/kg of the compounds of Examples were orally administered daily for 4 weeks (FIG. 8). Physiological saline was administered to the negative control group (vehicle). Blood BUN and Creatinine, which are the primary indicators of kidney function, were measured.
Additionally, the degree of fibrosis of the mouse kidney tissue was measured through immunochemical staining.

[7] = system: CD8+ T cells; experiment: CD8+ T cell proliferation inhibition (CFSE staining, flow cytometry); format: cell-based; conditions: human blood CD8+ T cells; 1.25, 2.5, 5, 10 μM; 5 days; FIG. 2
Protocol: as §1

[8] = system: C57BL/6 male mice; experiment: Mouse renal failure treatment model by Adenine diet; format: in vivo; conditions: oral once a day 5, 10, 20 mg/kg for 2 weeks, starting 2 weeks after start of adenine
Protocol: A feed containing adenine was administered to C57BL/6 male mice as described in Ali et al. J Pharmacol Toxicol Methods 2013; Jia et al. BMC Nephrol 2013; Tanaka et al. Am J Pathol 2009. Starting 2 weeks after the start of adenine administration, 5 mg/kg, 10 mg/kg and 20 mg/kg of the compounds of Examples were orally administered daily for 2 weeks (FIG. 4). Physiological saline was administered to the negative control group (vehicle). Blood BUN and Creatinine, which are the primary indicators of kidney function, were measured.
Further, the degree of fibrosis of the mouse kidney tissue was measured through immunochemical staining, and the results are shown in FIG. 5.

Q: With O[C@H]1CCCN[C@@H]1CCCn1cnc2c(Cl)c(Cl)ccc21 [Example] as the molecule, how does the IL-17 cytokine inhibition [1] read?
A: inhibited

Q: What about the fibrotic factor collagen [2] of the same molecule?
A: significantly inhibited

Q: What about the “fibrotic factor fibronectin” value [2] of the same molecule?
A: significantly inhibited

Q: And the “fibrotic factor αSMA” value [2]?
A: significantly inhibited

Q: And the “effect on damaged glomerular tissue” value ([3]; FIG. 10 and FIG. 11 (immunochemical staining))?
A: effective in damaged glomerular tissue

Q: What about the “proteinuria (uPCR)” value ([3]; assessed day 8, PRSi 5 mg/kg on the left side of FIG. 10) of the same molecule?
A: significantly reducing proteinuria

Q: And the fibrotic factor collagen [4]?
A: significantly inhibited

Q: What about the fibrotic factor fibronectin [4] of the same molecule?
A: significantly inhibited

Q: And the “fibrotic factor αSMA” value [4]?
A: significantly inhibited

Q: What about the “CD4+ T cell proliferation” value [5] of the same molecule?
A: cell proliferation is inhibited

Q: And the “deterioration of renal function (blood BUN and Creatinine)” value ([6]; FIG. 8)?
A: significantly inhibited in a dose-dependent manner

Q: And the “preventive effect on kidney damage caused by Adenine diet” value ([6]; FIG. 8)?
A: exhibited preventive effect

Q: What about the “collagen accumulation in renal tissue (immunochemical staining)” value ([6]; FIG. 9) of the same molecule?
A: significantly inhibited in a dose-dependent manner

Q: What about the “CD8+ T cell proliferation” value [7] of the same molecule?
A: cell proliferation is inhibited

Q: What about the “deterioration of renal function (blood BUN and Creatinine)” value ([8]; FIG. 4) of the same molecule?
A: significantly inhibited in a dose-dependent manner

Q: And the “accumulation of collagen in renal tissue (immunochemical staining)” value ([8]; FIG. 5)?
A: significantly inhibited in a dose-dependent manner
